One experiment has as its target T1, human PCSK9 (Homo sapiens, UniProt Q8NBP7).
T1 construct: biotinylated human PCSK9 (31-692)-Avi-His6; His6 (C)
As to the kind of experiment: Assay 2 - Biophysical human PCSK9 assay (SPR, Biacore). The conditions noted are these: geometric mean; SPR at 30° C; read-out: Assay 2 (PCSK9 BIAcore DBA CR) GMean Kd. It counts as binding. Here is the method: Assay 2—Biophysical Human PCSK9 Assay
The SPR binding experiments were performed on a Biacore S200 optical biosensor unit at 30° C. A Series S Sensor Chip SA that is designed to bind biotinylated molecules for interaction analysis in Biacore systems was equilibrated at room temperature prior to use. The running buffer for protein tethering and subsequent ligand binding experiments was 10 mM HEPES pH 7.4, 150 mM NaCl, 0.05% (v/v) Tween 20 pH 7.4.
For the surface tethering of PCSK9, biotinylated human PCSK9 (31-692)-Avi-His6 at a concentration of 0.5 mg/mL was used. Prior to the surface tethering, the surface was exposed to a solution of 50 mM NaOH, 500 mM NaCl via 3 consecutive injections of this solution with a contact time of 60 s and a flowrate of 10 μL min^−1 to remove non-conjugated streptavidin. The PCSK9 protein was diluted to a concentration of 20 μg/mL using running buffer and injected with a contact time of 180-300 s and a flowrate of 10 μL min^−1 over a single flow channel (typically flow channel 2 or flow channel 4) with the aim to achieve protein capture levels of >5000 response units (RU). Remaining biotin binding sites were blocked via 2 consecutive injections of a 10 μM D-biotin solution in running buffer with a contact time of 60 s and a flowrate of 10 μL min^−1 over all flow-channels. Flow-channels 1 and 3 typically served as a reference surface throughout the subsequent binding experiments.
The binding experiments were all performed at a flow rate of 30 PL min^−1 and by employing the method of single-cycle kinetics. This approach involves the sequential injection of a compound concentration series without regeneration steps. A contact time between 90-150 s was selected, which was followed by a 40 min dissociation phase to allow for a proper estimation of the dissociation rate constant. Test compounds were delivered in DMSO at a concentration of 10 mM and a digital dispenser HP D300 was used to set up the compound concentration series using 6 concentrations. The tested concentrations have been 30, 100, 300, 1000, 3000 and 10000 nM. Prior to injecting any compound, the surfaces were equilibrated by injecting running buffer over them in three separate pulses. The data collection rate was set to 10 Hz.
The raw sensorgrams of the compound injections were first subjected to reference subtraction (subtracting the signal from flow channel 1 and/or 3 from the signal from channels 2 and/or 4 respectively) and then blank subtraction (subtracting the signal from injecting DMSO controls from the reference subtracted data). The resulting double-referenced sensorgrams were then fitted using a 1:1 binding interaction model using the manufactures software package to extract kinetic- and affinity data. Active compounds have been defined by creating a detectable binding signal at the highest compound concentration ([…]) of 3 RUs. Kinetic- and affinity data on active compounds are only provided for those compounds where the binding signal at the highest compound concentration ([…]) is 50% of the theoretical maximum binding signal for a 1:1 binding interaction (Rmax, typically between 15-20 RUs) in order to enable a proper fitting of the data.

For the next experiment, the target named is PCSK9 (Homo sapiens, UniProt Q8NBP7, G670E/V474I). Kind of experiment: biochemical.
PCSK9, sequence (Q8NBP7 with tags, fused parts or gaps V474I/G670E): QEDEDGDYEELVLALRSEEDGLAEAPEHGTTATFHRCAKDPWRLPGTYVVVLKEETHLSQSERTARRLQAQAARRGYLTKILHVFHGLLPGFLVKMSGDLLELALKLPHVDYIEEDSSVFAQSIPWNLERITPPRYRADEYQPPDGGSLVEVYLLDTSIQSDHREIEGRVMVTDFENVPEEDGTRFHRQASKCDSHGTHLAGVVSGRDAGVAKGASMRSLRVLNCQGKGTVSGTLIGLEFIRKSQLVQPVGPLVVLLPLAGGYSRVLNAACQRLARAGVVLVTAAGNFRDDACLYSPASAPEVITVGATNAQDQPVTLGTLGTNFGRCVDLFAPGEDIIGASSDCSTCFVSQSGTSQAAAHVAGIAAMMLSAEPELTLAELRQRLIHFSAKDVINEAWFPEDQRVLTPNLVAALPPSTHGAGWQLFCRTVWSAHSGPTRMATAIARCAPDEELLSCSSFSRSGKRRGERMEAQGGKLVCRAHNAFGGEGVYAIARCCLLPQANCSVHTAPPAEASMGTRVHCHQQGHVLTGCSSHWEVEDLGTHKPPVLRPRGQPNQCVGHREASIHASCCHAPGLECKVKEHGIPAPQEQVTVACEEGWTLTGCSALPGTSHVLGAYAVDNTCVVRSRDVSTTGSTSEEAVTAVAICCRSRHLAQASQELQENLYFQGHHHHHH
In experiment [1] the target is T2, potassium ion channel hERG (human Ether-á-go-go-Related Gene) (Homo sapiens, UniProt Q12809).
T2 construct: expressed in transfected cells; host or cells: Chinese hamster ovary K1 (CHO)
T2 sequence (Q12809 whole entry): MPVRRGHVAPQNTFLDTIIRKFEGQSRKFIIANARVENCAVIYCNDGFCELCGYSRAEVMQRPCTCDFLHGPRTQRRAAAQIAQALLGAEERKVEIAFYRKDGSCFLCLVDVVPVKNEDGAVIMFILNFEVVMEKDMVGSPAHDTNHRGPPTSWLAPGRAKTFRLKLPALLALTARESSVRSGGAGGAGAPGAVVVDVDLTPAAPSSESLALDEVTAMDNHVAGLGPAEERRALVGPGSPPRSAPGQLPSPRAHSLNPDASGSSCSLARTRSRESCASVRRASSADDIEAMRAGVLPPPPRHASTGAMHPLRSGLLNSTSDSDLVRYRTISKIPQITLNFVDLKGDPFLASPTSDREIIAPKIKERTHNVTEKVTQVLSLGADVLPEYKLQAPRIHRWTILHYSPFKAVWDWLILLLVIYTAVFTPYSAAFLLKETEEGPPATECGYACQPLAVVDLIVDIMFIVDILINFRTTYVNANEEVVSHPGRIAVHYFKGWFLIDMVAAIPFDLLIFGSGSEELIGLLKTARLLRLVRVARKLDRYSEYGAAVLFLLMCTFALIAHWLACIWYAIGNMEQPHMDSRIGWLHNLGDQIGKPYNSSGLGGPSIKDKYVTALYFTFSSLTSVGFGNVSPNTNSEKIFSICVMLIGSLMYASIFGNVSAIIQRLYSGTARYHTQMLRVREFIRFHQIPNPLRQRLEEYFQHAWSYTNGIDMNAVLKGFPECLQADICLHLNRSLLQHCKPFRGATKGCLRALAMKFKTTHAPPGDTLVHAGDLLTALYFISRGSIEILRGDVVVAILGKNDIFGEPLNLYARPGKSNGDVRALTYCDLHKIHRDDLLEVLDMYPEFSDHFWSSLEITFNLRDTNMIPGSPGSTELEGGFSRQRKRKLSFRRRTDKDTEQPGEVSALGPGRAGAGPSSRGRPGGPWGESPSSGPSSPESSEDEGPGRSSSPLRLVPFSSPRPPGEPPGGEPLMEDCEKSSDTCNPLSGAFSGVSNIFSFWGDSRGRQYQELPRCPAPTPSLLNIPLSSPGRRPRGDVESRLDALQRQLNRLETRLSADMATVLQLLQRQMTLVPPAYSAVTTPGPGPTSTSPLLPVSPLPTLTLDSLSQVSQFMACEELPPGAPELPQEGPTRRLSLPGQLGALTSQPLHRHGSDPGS
As to the kind of experiment: Assay 5 - hERG assay (SyncroPatch 384PE patch clamp, CHO cells). The experiment is classed as cell-based. The conditions noted are these: geometric mean; CHO cells over-expressing hERG; read-out: Assay 5 (hERG Hu CHO IF EPh CR-Syncro) GMean IC50. An outline of the steps: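 Automated high-throughput patch clamp on CHO-K1 cells overexpressing hERG at room temperature, KF/KCl internal with escin, NMDG-containing external at pH 7.4. Six-point cumulative compound addition, 0.33% DMSO final; wells kept only with seal >30 MΩ, Z′ >0.4 and current >0.2 nA.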
On the technique in general: Block of hERG is tested as a sign of cardiac risk.

For experiment [2], the target named is GSK3β (Glycogen synthase kinase-3 beta) (Homo sapiens, UniProt P49841). Kind of experiment: Assay 6 - GSK3β assay (ThermoFisher Z-Lyte). The experiment is classed as biochemical. The conditions noted are these: geometric mean; ATP Conc: 10 μM; read-out: Assay 6 (GSK3β FRET-Z-Lyte CR) GMean IC50 (μM) ATP Conc: 10. An outline of the steps:
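Z-Lyte fluorescence kinase assay with 0.22-0.92 ng GSK3β and 2 μM Ser/Thr 09 peptide in 50 mM HEPES pH 7.5, 10 mM MgCl2, 1 mM EGTA, 0.01% BRIJ-35. Kinase reaction 60 min at room temperature, then 60 min development. 10-point 3-fold titration from 10 μM in 1% DMSO, fitted to a sigmoidal dose-response curve.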

T1 sequence (Q8NBP7 31-692): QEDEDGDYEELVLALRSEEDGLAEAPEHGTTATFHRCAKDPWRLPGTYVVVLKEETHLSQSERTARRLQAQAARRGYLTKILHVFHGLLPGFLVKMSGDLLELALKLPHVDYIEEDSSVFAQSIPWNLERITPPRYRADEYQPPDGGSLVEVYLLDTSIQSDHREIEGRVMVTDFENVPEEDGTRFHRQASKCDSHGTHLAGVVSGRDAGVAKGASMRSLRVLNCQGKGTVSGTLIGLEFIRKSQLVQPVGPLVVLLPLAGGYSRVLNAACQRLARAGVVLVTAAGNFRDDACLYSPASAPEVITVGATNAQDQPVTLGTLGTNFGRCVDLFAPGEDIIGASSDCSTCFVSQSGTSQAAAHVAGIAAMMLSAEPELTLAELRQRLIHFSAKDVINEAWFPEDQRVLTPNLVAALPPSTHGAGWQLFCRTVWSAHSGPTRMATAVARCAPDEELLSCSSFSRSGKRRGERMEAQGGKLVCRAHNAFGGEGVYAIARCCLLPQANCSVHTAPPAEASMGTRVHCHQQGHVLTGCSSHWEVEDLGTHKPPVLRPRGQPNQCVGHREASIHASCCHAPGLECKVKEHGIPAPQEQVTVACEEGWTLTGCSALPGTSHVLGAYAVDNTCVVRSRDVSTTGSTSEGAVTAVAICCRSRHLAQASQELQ
GSK3β (Glycogen synthase kinase-3 beta), sequence (P49841 whole entry): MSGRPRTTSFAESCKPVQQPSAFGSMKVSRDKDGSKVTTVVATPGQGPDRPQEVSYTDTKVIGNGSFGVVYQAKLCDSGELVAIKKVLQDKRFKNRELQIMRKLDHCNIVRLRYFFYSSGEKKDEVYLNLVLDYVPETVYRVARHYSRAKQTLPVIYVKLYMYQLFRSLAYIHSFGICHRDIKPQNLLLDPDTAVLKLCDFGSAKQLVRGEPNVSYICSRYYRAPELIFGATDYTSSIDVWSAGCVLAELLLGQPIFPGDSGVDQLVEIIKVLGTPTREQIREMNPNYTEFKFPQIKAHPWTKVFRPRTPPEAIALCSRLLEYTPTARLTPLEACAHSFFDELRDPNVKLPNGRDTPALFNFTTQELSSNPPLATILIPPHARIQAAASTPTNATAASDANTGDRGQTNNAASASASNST

As a reminder, the Kd is the concentration at which binding is half-saturated. As usually defined, the IC50 is the concentration needed to halve the response being measured. In the case of `Cc1nc(N[C@H]2CC[C@H](Nc3ccc(-n4ccccc4=O)cn3)C2)cnc1C#N` [Example 1, 3-Methyl-5-(((1S,3S)-3-((2-oxo-2H-[1,3′-bipyridin]-6′-yl)amino)cyclopentyl)amino)pyrazine-2-carbonitrile], the Kd on human PCSK9 was determined as 1700 nM. Also, the IC50 against PCSK9 was 2750 nM; in experiment [1], more than 40100 nM.

Take `Cc1ncc(N[C@H]2CC[C@H](Nc3ccc(-n4ccccc4=O)cn3)C2)nc1C` [Example 2, 6′-(((1S,3S)-3-((5,6-Dimethylpyrazin-2-yl)amino)cyclopentyl)amino)-2H-[1,3′-bipyridin]-2-one]: the IC50 was more than 10 µM in experiment [2], 112 nM against PCSK9 and more than 40000 nM in experiment [1]. Moreover, the Kd on human PCSK9 was determined as 64 nM.

With `O=c1ccccn1-c1ccc(N[C@H]2CC[C@H](Nc3cnc(Cl)cn3)C2)nc1` [Example 3, 6′-(((1S,3S)-3-((5-Chloropyrazin-2-yl)amino)cyclopentyl)amino)-2H-[1,3′-bipyridin]-2-one], the IC50 in experiment [2] is more than 10 µM; on PCSK9, 40 nM; in experiment [1], 24600 nM. Moreover, the Kd at human PCSK9 was 39 nM.

In the case of `Cc1cnc(N[C@H]2CC[C@H](Nc3ccc(-n4ccccc4=O)cn3)C2)cn1` [Example 4, 6′-(((1S,3S)-3-((5-Methylpyrazin-2-yl)amino)cyclopentyl)amino)-2H-[1,3′-bipyridin]-2-one], the IC50 in experiment [2] was more than 10 µM; against PCSK9 it was 104 nM; in experiment [1] it was more than 40000 nM. Also, the Kd at human PCSK9 amounted to 81 nM.

On to `N#Cc1cnc(N[C@H]2CC[C@H](Nc3ccc(-n4ccccc4=O)cn3)C2)cn1` [Example 5, 5-(((1S,3S)-3-((2-Oxo-2H-[1,3′-bipyridin]-6′-yl)amino)cyclopentyl)amino)pyrazine-2-carbonitrile], for which the IC50 came out at 0.713 µM in experiment [2], 499 nM at PCSK9 and 18500 nM in experiment [1]. In addition, the Kd at human PCSK9 is 412 nM.

With `CC(=O)c1cnc(N[C@H]2CC[C@H](Nc3ccc(-n4ccccc4=O)cn3)C2)cn1` [Example 6, 6′-(((1S,3S)-3-((5-Acetylpyrazin-2-yl)amino)cyclopentyl)amino)-2H-[1,3′-bipyridin]-2-one], at human PCSK9, the Kd worked out at 863 nM. Also, the half-maximal inhibitory concentration (IC50) on PCSK9 was 1160 nM; in experiment [1] it was more than 40100 nM.

On to `Cc1ncc(N[C@H]2CC[C@H](Nc3ccc(-n4cccc(C)c4=O)cn3)C2)nc1C` [Example 18, 6′-(((1S,3S)-3-((5,6-Dimethylpyrazin-2-yl)amino)cyclopentyl)amino)-3-methyl-2H-[1,3′-bipyridin]-2-one], for which the IC50 in experiment [2] was more than 10 µM; at PCSK9, 17 nM; in experiment [1] it was more than 40000 nM. Also, the Kd at human PCSK9 was determined as 14 nM.

On to `Cc1ncc(N[C@H]2CC[C@H](Nc3ccc(N4C(=O)CN(C)C4=O)cn3)C2)nc1C` [Example 22, 3-(6-(((1S,3S)-3-((5,6-Dimethylpyrazin-2-yl)amino)cyclopentyl)amino)pyridin-3-yl)-1-methylimidazolidine-2,4-dione], for which the IC50 in experiment [2] was more than 10 µM; at PCSK9, 107 nM; in experiment [1], more than 40000 nM. Further, the Kd on human PCSK9 was 93 nM.

`Cc1cnc(N[C@H]2CC[C@H](Nc3ccc(N4CC(=O)N(C)C4=O)cn3)C2)cn1` [Example 39, 3-Methyl-1-(6-(((1S,3S)-3-((5-methylpyrazin-2-yl)amino)cyclopentyl)amino)pyridin-3-yl)imidazolidine-2,4-dione]: the IC50 is more than 10 µM in experiment [2], 34 nM at PCSK9 and more than 40000 nM in experiment [1]. Besides, the Kd on human PCSK9 was found to be 33 nM.

Regarding `O=C(O)[C@@H]1CCC(=O)N1c1ccc(N[C@H]2CC[C@H](Nc3cnc(OC(F)F)cn3)C2)nc1` [Example 79, (S)-1-(6-(((1S,3S)-3-((5-(Difluoromethoxy)pyrazin-2-yl)amino)cyclopentyl)amino)pyridin-3-yl)-5-oxopyrrolidine-2-carboxylic acid], the IC50 is more than 10 µM in experiment [2], 827 nM against PCSK9 and more than 40000 nM in experiment [1]. The Kd at human PCSK9 is 422 nM.

As for `CN1CCN(c2ccc(=O)n(-c3ccc(N[C@H]4CC[C@H](Nc5cnc(OC(F)F)cn5)C4)nc3)c2)CC1` [Example 81, 6′-(((1S,3S)-3-((5-(Difluoromethoxy)pyrazin-2-yl)amino)cyclopentyl)amino)-5-(4-methylpiperazin-1-yl)-2H-[1,3′-bipyridin]-2-one], the results for the IC50 (in experiment [2]; against PCSK9; in experiment [1]) were 0.498 µM, 202 nM and more than 40000 nM, respectively. Also, at human PCSK9, the Kd turned out to be 66 nM.

Consider `O=c1ccccn1-c1ccc(N[C@H]2CC[C@H](Nc3cnc(OC(F)F)cn3)C2)nc1` [Example 86, 6′-(((1S,3S)-3-((5-(Difluoromethoxy)pyrazin-2-yl)amino)cyclopentyl)amino)-2H-[1,3′-bipyridin]-2-one], for which the figures for the IC50 (in experiment [2]; at PCSK9; in experiment [1]) were more than 10 µM, 73 nM and 13400 nM, respectively. Moreover, the Kd on human PCSK9 was determined as 64 nM.

In the case of `CN1C(=O)CN(c2ccc(N[C@H]3CC[C@H](Nc4cnc(OC(F)F)cn4)C3)nc2)C1=O` [Example 92, 1-(6-(((1S,3S)-3-((5-(Difluoromethoxy)pyrazin-2-yl)amino)cyclopentyl)amino)pyridin-3-yl)-3-methylimidazolidine-2,4-dione], the IC50 in experiment [2] is more than 10 µM; on PCSK9 it was 59 nM; in experiment [1], 4400 nM. Further, the Kd at human PCSK9 came to 52 nM.

Regarding `CN1CC(=O)N(c2ccc(N[C@H]3CC[C@H](Nc4cnc(Cl)cn4)C3)nc2)C1=O` [Example 100, 3-(6-(((1S,3S)-3-((5-Chloropyrazin-2-yl)amino)cyclopentyl)amino)pyridin-3-yl)-1-methylimidazolidine-2,4-dione], the half-inhibitory concentration (IC50) in experiment [2] is more than 10 µM; at PCSK9, 28 nM; in experiment [1], more than 40100 nM. Moreover, the Kd at human PCSK9 worked out at 45 nM.

Turning to `Cc1nc(N[C@H]2CC[C@H](Nc3ccc(-n4ccccc4=O)cn3)C2)cnc1Cl` [Example 102, 6′-(((1S,3S)-3-((5-Chloro-6-methylpyrazin-2-yl)amino)cyclopentyl)amino)-2H-[1,3′-bipyridin]-2-one], the IC50 in experiment [2] was more than 10 µM; against PCSK9, 85 nM; in experiment [1], 17700 nM. Moreover, the dissociation constant (Kd) on human PCSK9 turned out to be 122 nM.

Take `O=c1ccccn1-c1ccc(N[C@H]2CC[C@H](Nc3cnc(OC(F)(F)F)cn3)C2)nc1` [Example 111, 6′-(((1S,3S)-3-((5-(Trifluoromethoxy)pyrazin-2-yl)amino)cyclopentyl)amino)-2H-[1,3′-bipyridin]-2-one]: the IC50 in experiment [2] is more than 10 µM; against PCSK9 it was 149 nM; in experiment [1] it was 20800 nM. The Kd at human PCSK9 is 128 nM.

In the case of `COc1cnc(N[C@H]2CC[C@H](Nc3ccc(-n4ccccc4=O)cn3)C2)cn1` [Example 140, 6′-(((1S,3S)-3-((5-Methoxypyrazin-2-yl)amino)cyclopentyl)amino)-2H-[1,3′-bipyridin]-2-one], the Kd on human PCSK9 was 81 nM. Besides, the IC50 is 309 nM on PCSK9 and more than 40000 nM in experiment [1].

Source of the values: patent US20240217951A1, “PCSK9 INHIBITORS AND METHODS OF USE THEREOF” (AstraZeneca AB, priority 2022, published 2024).
